Laboratory results: patent US10017535B2, “Amphiphilic compounds with neuroprotective properties” (USTAV ORGANICKE CHEMIE A BIOCHEMIE AV CR, v.v.i., priority 2014, dated 2018)
Read-outs that look alike come from different tables or passages of the source.

What was measured:
[1] = target: T1, NR1-1a/NR2B NMDA receptor (Rattus norvegicus, UniProt P35439+Q00960); assay: Patch-clamp inhibition of glutamate-evoked currents at recombinant NMDA receptors in transfected HEK293 cells; assay type: cell-based; settings: for IC50: calculated from relative steroid-induced inhibition, Hill's coefficient 1.2, read-out: IC50
T1 construct: expressed in transfected cells; host or cells: HEK293 cells (ATCC CRL1573)
Summary of the method: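 HEK293 cells co-transfected with rat NR1-1a/NR2B plus GFP were whole-cell patch-clamped 16-40 h post-transfection at −60 mV. Currents were evoked by 1 mmol·l^−1 glutamate with 10 μmol·l^−1 glycine in ECS pH 7.3, and steroid was co-applied in DMSO via fast perfusion. IC50 came from relative inhibition.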

[2] = target: T1, NR1-1a/NR2B NMDA receptor; settings: 100 μmol·l^−1 pregnanolone sulfate, recombinant NR1/NR2B receptors, n=5, cited from earlier work
[3] = system: NMDA receptors on hipocampal neurones; settings: 100 μmol·l^−1 pregnanolone sulfate, responses to 100 μmol·l^−1 NMDA, n=5; cited from earlier work
[4] = system: laboratory mice, strain CD-1; assay type: in vivo; settings: intraperitoneally, 1 mg/kg; also: key: −: the desired effect was not observed; −/+: the desired effect was insufficient; +: the desired effect was observed
Experimental: (§1) In the Experimental Part 1 were used adults (30-35 g) male laboratory mice, strain CD-1 from Velaz facility, Czech Republic. Mice were housed in plastic boxes with a 12-hour light cycle (lights on at 7:00 pm). Mice had free access to food and water.
Thus there were prepared solutions of the four steroids for application rates of 0.1, 1, 10 and 100 mg/kg.
Laboratory mouse was chosen as a model organism for this experiment. The following experiments were performed as described in Front Behay. Neurosci.
The purpose of the primary behavioral testing was quickly determined the effect of compounds on CNS dependent functions and any signs of toxicity. A simplified modification Irwin test was selected with respect to the behavioral profile of NMDA receptor antagonists. Mice were tested individually. The study drug was administered intraperitoneally (Table 3) at a dose of 1 mg/kg. The control group consisted of individuals that received the CDX solution or saline.

[5] = system: laboratory mice, strain CD-1; assay: Open field test (locomotor activity, sedative effect); as to Open Field Test No Evidence of Hyperlocomotion: key: −: the desired effect was not observed; −/+: the desired effect was insufficient; +: the desired effect was observed; as to Sedative Effect The Rapid Onset of Sedation at a Dose of 100 mg/kg: key: −: the desired effect was not observed; −/+: the desired effect was insufficient; +: the desired effect was observed; assay type: in vivo; settings: for pathway in open field: dose 10 and 100 mg/kg, vs intact mice; for locomotor activity over time: higher dose of 10 resp. 100 mg/kg; for Open Field Test No Evidence of Hyperlocomotion / Sedative Effect The Rapid Onset of Sedation at a Dose of 100 mg/kg: intraperitoneally; for Open Field Test No Evidence of Hyperlocomotion: 0.1-100 mg/kg; for hyperlocomotion in open field: lower doses (below 10 mg/kg)
Experimental: as §1
Amphiphilic steroid compounds were dissolved in a solution of 3 g (2-hydroxypropyl)-β-cyclodextrin (CDX, Sigma-Aldrich) and 157 mg of citric acid ([…], Sigma-Aldrich) in 30 ml of distilled water, the pH was adjusted to 7.4 using sodium hydroxide (NaOH, Sigma-Aldrich). Thus there were prepared solutions of the four steroids for application rates of 0.1, 1, 10 and 100 mg/kg.
The efficacy of the studied compounds was compared to known NMDA antagonist is memantine (Sigma-Aldrich) at a dose of 5 mg/kg in rats, ketamine (Vétoquinol) at 10 mg/kg and dizocilpine (MK-801) (Sigma-Aldrich) at a dose of 0.3 mg/kg in mice. These three compounds were dissolved in saline (B Braun).
The substances at dose 0.1-100 mg/kg were administered before the test to mice intraperitoneally. As controls were used intact mice and mice that received CDX solution. Also, MK-801 (0.3 mg/kg) was used for comparison of effects of noncompetitive antagonist of NMDA receptors. From the experiment was evaluated overall track anywhere in the arena as an indicator of locomotor activity. In addition, it was judged a ten-minute segments track during each experiment. Based on these values, it was possible to determine the latency time of onset of action and changes in locomotor activity over time.
In this arrangement, the sedative effect of the studied compounds at the highest dose was evaluated. […] Over time was monitored locomotor activity and possible changes characterized by tremor, ataxia, restlessness, or sedation or general anesthesia (absence of response to stimuli, decreased muscle tone).

[6] = system: NMDA lesion of the dorsal hippocampus in rats; assay: Active allothetic place avoidance (AAPA) after bilateral excitotoxic NMDA lesion of dorsal hippocampus; assay type: in vivo, rat Long-Evans strain; settings: for maximum time avoiding the sector, fourth session of AAPA / number of entries into the forbidden sector, fourth session of AAPA: 1 mg/kg after surgery, vs NMDA group
Experimental: In the Experimental Part 2 were used adult (3 months old, 300-400 g) male rat Long-Evans strain. The animals come from herds Institute of Physiology ASCR. The rats were housed in clear plastic boxes with the same light cycle as in mice. Animals had free access to food and water. All experiments were carried out in the light of clay. All experiments were carried out in accordance with the Law on protection of animals against cruelty.
The anesthetized rats were used in operations isoflurane (3.5%, Baxter). To recall excitotoxic lesion of the dorsal hippocampus was applied 0.05 mol·l^−1 solution of NMDA (Sigma-Aldrich) in 0.4 mol·l^−1 phosphate buffer solution prepared by mixing 356 g Na2HPO4.12H2O (Mw358.14) in 4.2 l of distilled water and a solution of 62.4 g NaHPO4. 2H2O (Mw156.01) in 0.8 l of distilled water. The pH of the resulting solution of NMDA was adjusted to 7.4 with NaOH.
In this experiment, the neuroprotective effects were evaluated for amphiphilic steroid compounds. The procedure was performed according to Neuropharmacology 61, 61-68 (2011)
The rats were randomly divided into eleven groups. The control group included operated animals, which were injected by phosphate buffer […] into the hippocampus. In the second group, the animals had NMDA lesions of the hippocampus. The animals of the third group were applied clinically used NMDA antagonist memantine at a dose of 5 mg/kg after NMDA lesion. The other groups were administered the compounds at a dose of 1 mg/kg.
The test was performed in rotating arena with prohibited sector in the form of a circular sector (60°). If the rat entered the sector, its limbs received weak electrical impulse.
Test memory and spatial cognition in rats using AAPA was evaluated over four sessions, which are in healthy rats sufficient to achieve asymptotic level (Behay. Brain. Res. 189, 139-144 (2008)). To evaluate memory and spatial cognition was used data from the fourth session, and the number of entries into the forbidden sector and the maximum avoidance sector. […] After the experiment, the localization of the lesion was histologically verified.
Data were analyzed using the non parametric test of Maim Whitney criteria using the GraphPad. The difference was considered significant for p<0.05, for a non-significant tendency then for 0.05<p<0.075.

[7] = system: laboratory mice, strain CD-1; assay: Passive avoidance test (aversive motivated memory); assay type: in vivo; as to Passive Avoidance Test No Memory Violation: key: −: the desired effect was not observed; −/+: the desired effect was insufficient; +: the desired effect was observed
Experimental: as §1
Aversive motivated memory test was evaluated on the basis of latency input into the preferred, but unpleasant sensation associated with delivery device.

[8] = system: laboratory mice, strain CD-1; assay: Forced swimming test (antidepressant effect); assay type: in vivo
Experimental: as §1
This assay was used to monitor the antidepressant effect. Animals float 6 minutes in acrylic cylinder in water at 24° C. A period of immobility is evaluated. The reduction is a manifestation of anti-depressant properties of drugs.

[9] = HEK293, read-out: Mean % change ± SD
[10] = memantine 5 mg/kg after NMDA lesion

T1 sequence (Q00960 27-1482, other chains not shown): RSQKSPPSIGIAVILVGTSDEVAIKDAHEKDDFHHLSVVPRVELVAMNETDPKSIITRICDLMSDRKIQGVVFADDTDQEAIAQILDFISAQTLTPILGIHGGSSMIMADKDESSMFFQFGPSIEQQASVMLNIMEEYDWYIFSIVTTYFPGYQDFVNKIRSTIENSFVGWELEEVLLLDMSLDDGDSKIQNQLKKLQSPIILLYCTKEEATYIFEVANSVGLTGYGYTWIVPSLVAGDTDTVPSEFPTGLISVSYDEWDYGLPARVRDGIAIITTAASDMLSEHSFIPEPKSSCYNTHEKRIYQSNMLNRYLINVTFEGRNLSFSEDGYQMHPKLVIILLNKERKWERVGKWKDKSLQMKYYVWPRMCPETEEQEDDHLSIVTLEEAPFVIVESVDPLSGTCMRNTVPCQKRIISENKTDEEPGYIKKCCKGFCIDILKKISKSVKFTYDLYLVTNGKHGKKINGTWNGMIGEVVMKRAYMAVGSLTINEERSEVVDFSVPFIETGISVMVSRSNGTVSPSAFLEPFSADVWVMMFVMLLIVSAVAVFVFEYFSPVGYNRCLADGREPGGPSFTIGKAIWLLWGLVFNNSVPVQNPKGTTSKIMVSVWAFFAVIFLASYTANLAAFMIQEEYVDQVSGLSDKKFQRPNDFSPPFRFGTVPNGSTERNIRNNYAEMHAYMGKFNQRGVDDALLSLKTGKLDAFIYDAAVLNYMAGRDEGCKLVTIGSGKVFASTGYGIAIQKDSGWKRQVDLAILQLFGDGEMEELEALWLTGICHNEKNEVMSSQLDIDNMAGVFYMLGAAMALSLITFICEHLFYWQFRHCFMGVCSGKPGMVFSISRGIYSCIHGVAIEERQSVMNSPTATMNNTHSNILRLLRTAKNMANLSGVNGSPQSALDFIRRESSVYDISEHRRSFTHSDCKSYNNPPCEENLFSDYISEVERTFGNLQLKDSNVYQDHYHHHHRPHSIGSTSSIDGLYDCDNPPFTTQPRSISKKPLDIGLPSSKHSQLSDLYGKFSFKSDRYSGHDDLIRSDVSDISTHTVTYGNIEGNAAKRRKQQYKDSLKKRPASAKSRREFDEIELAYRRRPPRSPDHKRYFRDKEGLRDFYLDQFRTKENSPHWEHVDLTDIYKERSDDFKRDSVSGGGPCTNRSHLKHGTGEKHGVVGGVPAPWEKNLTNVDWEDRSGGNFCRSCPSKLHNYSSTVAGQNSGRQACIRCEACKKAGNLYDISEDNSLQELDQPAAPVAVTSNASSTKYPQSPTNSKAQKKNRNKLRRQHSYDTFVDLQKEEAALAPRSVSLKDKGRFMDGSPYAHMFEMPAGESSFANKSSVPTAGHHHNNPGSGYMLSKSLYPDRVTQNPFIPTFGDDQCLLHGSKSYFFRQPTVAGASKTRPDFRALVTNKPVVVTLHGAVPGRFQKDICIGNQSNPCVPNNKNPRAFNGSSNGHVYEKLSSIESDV

Compound	IC50 [1] [µM]	Behavioural Test No Evidence of Toxicity [4]	pathway in open field [5]	locomotor activity over time [5]	Open Field Test No Evidence of Hyperlocomotion [5]	Sedative Effect The Rapid Onset of Sedation at a Dose of 100 mg/kg [5]	hyperlocomotion in open field [5]	maximum time avoiding the sector, fourth session of AAPA [6]	number of entries into the forbidden sector, fourth session of AAPA [6]	Passive Avoidance Test No Memory Violation [7]	also measured
5beta-pregnanolon-3alpha-yl 3-sulfate [3alfa,5beta-Pregnanolone sulfate]	55										mean inhibition effect (Mean % change ± SD) ([2]; listed as 5beta-pregnanolon-3alpha-yl 3-sulfate): 67%; mean inhibition effect (Mean % change ± SD) ([2]; listed as pregnanolone sulfate): 67.2±8.2%; mean inhibition effect [3]: 71.3±5.0%
C=C1CC[C@H]2[C@@H]3CC[C@@H]4C[C@H](OC(=O)CC(=O)O)CC[C@]4(C)[C@H]3CC[C@]12C [Compound 67, 3-(((3R,5R,8R,9S,10S,13S,14S)-10,13-Dimethyl-17-methylenehexadecahydro-1H-cyclo-penta[a]phenanthren-3-yl)oxy)-3-oxopropanoic acid]	18.9	+	significant reduction	significant decrease	+	+	not (unlike groups with dizocilpine) observed hyperlocomotion	significantly increased	significant reduction		inhibition at 20 µM [1, 9]: 53 ± 10.2%
C=C1CC[C@H]2[C@@H]3CC[C@@H]4C[C@H](OC(=O)CCC(=O)O)CC[C@]4(C)[C@H]3CC[C@]12C [Compound 68, 4-(((3R,5R,8R,9S,10S,13S,14S)-10,13-Dimethyl-17-methylenhexadecahydro-1H-cyclopenta[a]phenanthren-3-yl)oxy)-4-oxobutanoic acid]	18.8	+	significant reduction	significant decrease	+	+	not (unlike groups with dizocilpine) observed hyperlocomotion	tendency to increase	reduced number of entries	+	inhibition at 5 µM [1, 9]: 24.2 ± 14.3%
C=C1CC[C@H]2[C@@H]3CC[C@@H]4C[C@H](OC(=O)CCCC(=O)O)CC[C@]4(C)[C@H]3CC[C@]12C [Compound 69, 5-(((3R,5R,8R,9S,10S,13S,14S)-10,13-Dimethyl-17-methylenhexadecahydro-1H-cyclopenta[a]phenanthren-3-yl)oxy)-5-oxopentanoic acid]		+	significant reduction	significant decrease	+	+	not (unlike groups with dizocilpine) observed hyperlocomotion				inhibition at 20 µM [1, 9]: 62.9 ± 5.1%; NMDA lession Improvement in Cognition in AAPA after NMDA Lession ([6]; 1 mg/kg after NMDA lesion): −/+
C[C@H]1CC[C@H]2[C@@H]3CC[C@@H]4C[C@H](OC(=O)[C@@H](N)CCC(=O)O)CC[C@]4(C)[C@H]3CC[C@]12C [Compound 81, (4S)-4-Amino-5-oxo-5-(((3R,5R,8S,9S,10S,13R,14S,17S)-10,13,17-trimethylhexadecahydro-1H-cyclopenta[a]phenanthren-3-yl)oxy)pentanoic acid]		+	significant reduction	significant decrease	+	+	not (unlike groups with dizocilpine) observed hyperlocomotion	tendency to increase	reduced number of entries	+	Forced Swimming Test Reduced Floating [8]: −
C/C=C1/CC[C@H]2[C@@H]3CC[C@@H]4C[C@H](OC(=O)CCC(=O)O)CC[C@]4(C)[C@H]3CC[C@]12C [Compound 84, 4-(((3R,5R,8R,9S,10S,13S,14S,Z)-17-Ethylidene-10,13-dimethylhexadecahydro-1H-cyclopenta[a]phenanthren-3-yl)oxy)-4-oxobutanoic acid]		+	significant reduction	significant decrease	+	+	not (unlike groups with dizocilpine) observed hyperlocomotion	tendency to increase	reduced number of entries	−/+	memory impairment in the passive avoidance test ([7]; 1 mg/kg): Mild memory impairment
CNC1(c2ccccc2Cl)CCCCC1=O (centres unmarked) [ketamine, reference compound]											antidepressant effect (decrease of flotation) ([8]; reference substance ketamine (10 mg/kg)): showed antidepressant effect
CC12CC3CC(C)(C1)CC(N)(C3)C2 [memantine, reference compound]											maximum time avoidance, AAPA [6, 10]: tendency to increase; number of entries into the forbidden sector, AAPA [6, 10]: reduced number of entries
